From the supplement of paper PMC8882468
Values joined by “and” are separate entries in the source; they are usually repeats but may differ in a detail not shown here. Identical values can stand only once. ± gives the standard deviation of the averaged measurements.

Key:
Assay in all cases: CTG-3D luminescence at 96 h relative to day-0 seeding control (ratio to day 0); higher = more growth / less cytotoxicity; PDxO 3D drug screen (set 2), 96 h, CTG-3D normalised to day-0 seeding control.
HCI-023 = system: HCI-023 (organoid from a triple-negative breast cancer xenograft)
HCI-001 = system: HCI-001 (organoid from a triple-negative breast cancer xenograft)
HCI-010 = system: HCI-010 (organoid from a breast cancer xenograft)
MDA-MB-231 = system: MDA-MB-231
HCI-017.E2 = system: HCI-017.E2 (organoid from an ER-positive breast cancer xenograft)

C[C@@H](Nc1cc(F)cc(F)c1)c1cc(C(=O)N(C)C)cc2c(=O)cc(N3CCOCC3)oc12 [AZD-8186]
CTG-3D luminescence at 96 h
Conditions	12.5 pM	0.00025 µM	0.005 µM	0.1 µM	1 µM	10 µM	100 µM	625 fM
HCI-001, days in culture: 365	2.63	2.2	2.38	2.83	1.84	1.13	1.08	1.53
HCI-001, days in culture: 397	1.79	2.6	2.23	2.14	1.81	1.69	0.737	1.6
HCI-001, days in culture: 401	1.64	1.69	1.59	1.76	1.28	1.24	0.924	1.69
HCI-010, days in culture: 79	1.88	1.85	1.94	1.98	1.58	1.1	0.138	2.14
HCI-010, days in culture: 86	2.26	2.36	2.34	2.1	1.99	1.67	0.321	2.16
HCI-010, days in culture: 102	1.18	0.973	1.18	1.19	1.19	0.856	0.0314	1.26
HCI-010, days in culture: 164	1.6	1.49	1.64	1.37	1.4	1.02	0.0763	1.52
HCI-017.E2, days in culture: 85	1.85	1.86	1.62	2.05	1.45	1.14	0.197	2.07
HCI-023, days in culture: 223	1.94	2.6	1.75	1.98	1.44	1.93	1.14	1.74
HCI-023, days in culture: 238	1.54	1.51	1.31	1.41	1.7	1.3	1.05	1.54
HCI-023, days in culture: 252	2.12	1.88	1.63	1.81	1.91	2.09	1.5	1.99

CTG-3D luminescence at 96 h
Conditions	12.5 pM	0.00025 µM	0.005 µM	0.1 µM	1 µM	10 µM	100 µM	625 fM
HCI-017.E2	2.08 ± 0.29	2.64 ± 0.68	2.27 ± 0.18	2.48 ± 0.5	1.89 ± 0.45	1.096 ± 0.0042	0.252 ± 0.03	2.74 ± 0.23
MDA-MB-231	5.61 and 5.06	5.71 and 5.14	5.56 and 5.16	5.39 and 4.98	5.11 and 4.76	4.68 and 4.38	2.77 and 2.47	5.47 and 5.15
